Experiments:
Type in all cases: in vivo, C57BL/6 mice
B16-F10 tumor cells = experiment: B16-F10 therapeutic tumor model; conditions: B16-F10 SC implanted
[1] = tested on: antigen-specific CD4 T cells; experiment: CD4 T cell response by intracellular cytokine staining of blood; conditions: LP delivered as SNP-7/8a; × = immunogenic
[2] = tested on: antigen-specific CD8 T cells; experiment: CD8 T cell response by intracellular cytokine staining of blood; conditions: LP delivered as SNP-7/8a; × = immunogenic; listed as M07

Row | Sequence | Tumor control, neoantigen as LP + polyIC by SC route (B16-F10 tumor cells; days 1, 8 and 15 with anti-PD-L1 IP) | Tumor control, neoantigen as SNP-7/8a by IV route (B16-F10 tumor cells; with anti-PD-L1 IP) | CD4 response, present study, SNP-7/8a [1] | CD8 response, present study, SNP-7/8a [2]
1 | ELINFKRKRVAAFQKNLIEMSELEIKH [Compound B16-M39] | no efficacy observed | – | – | –
2 | TAKSVMCTYSPPLDKLFCQLAKTCPVQ [Compound B16-M07] | – | improved control of tumor growth | no significant CD4 T cell response | induced a CD8 T cell response
